Bridge positions count the residues as written; N and C are the ends. Square brackets hold non-standard residues; d marks the D form. Peptide text beside a SMILES is read from it. * marks the point of attachment. ξ: configuration not given here. Ala(1H-tetrazol-5-yl) = N[C@@H](Cc1nnn[nH]1)C(=O)O; Bip = N[C@@H](Cc1ccc(-c2ccccc2)cc1)C(=O)O; Phe(3-Me) = Cc1cccc(C[C@H](N)C(=O)O)c1; 4Pal = N[C@@H](Cc1ccncc1)C(=O)O; AllylGly = C=CC[C@H](N)C(=O)O; Carboxymethyl = O=C(O)C*; NMeA = CN[C@@H](C)C(=O)O; Dab = NCC[C@H](N)C(=O)O; ξC = NC(CS)C(=O)O

The target of the test is T1, PE-labeled human PD-L1-Ig binding to Jurkat cell line over-expressing human PD-1 (Jurkat-PD-1) (Homo sapiens, UniProt Q15116).
T1 construct: expressed in transfected cells; host or cells: Jurkat
T1 sequence (Q15116 25-288): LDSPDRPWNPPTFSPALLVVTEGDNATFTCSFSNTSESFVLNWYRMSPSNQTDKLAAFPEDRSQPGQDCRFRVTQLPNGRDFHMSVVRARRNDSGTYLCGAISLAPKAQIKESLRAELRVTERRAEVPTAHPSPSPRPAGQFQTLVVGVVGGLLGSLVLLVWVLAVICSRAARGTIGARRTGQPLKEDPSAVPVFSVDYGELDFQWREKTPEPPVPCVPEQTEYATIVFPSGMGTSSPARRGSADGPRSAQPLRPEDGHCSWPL
In words: Jurkat-PD-1 Cell Binding High-Content Screening Assay (CBA): Method 1. The following applies: Jurkat-hPD-1 cells, PE-labeled PD-L1-Ig 20 nM final; read-out: Jurkat HPDL1 PD1 IC50 (uM) (Method 1).
Consider `CC(C)C[C@@H]1NC(=O)[C@H](CCCNC(=N)N)NC(=O)[C@@H](CC(C)C)NC(=O)[C@H](C)N(C)C(=O)[C@H](CCCNC(=N)N)NC(=O)[C@H](Cc2ccc(-c3ccccc3)cc2)NC(=O)[C@H](C(C)C)NC(=O)[C@H](Cc2c[nH]c3ccccc23)NC(=O)[C@H](CC(=O)O)NC(=O)[C@H](Cc2ccc(O)cc2)NC(=O)[C@H](Cc2ccccc2)NC(=O)CSC[C@@H](C(=O)NCC(N)=O)NC(=O)[C@H](CO)NC(=O)[C@H](C(C)C)NC1=O` [Compound 1017] ({CH2CO}-FYDWV[Bip]R[NMeA][dL]RLVSCG-NH2; thioether N-14), for which the IC50 (commonly the point on the concentration scale where inhibition reaches its midpoint) was found to be 0.04 µM.

Regarding `CC(C)C[C@@H]1NC(=O)[C@H](Cc2c[nH]c3ccccc23)NC(=O)[C@H](CC(=O)O)NC(=O)[C@H](Cc2ccc(O)cc2)NC(=O)[C@H](Cc2ccncc2)NC(=O)CSC[C@@H](C(=O)N[C@@H](C)C(N)=O)NC(=O)[C@H](CO)NC(=O)[C@H](C(C)C)NC(=O)[C@H](CC(C)C)NC(=O)[C@H](CC(N)=O)NC(=O)[C@@H](C)NC(=O)[C@H](C)N(C)C(=O)[C@H](C(C)C)NC(=O)[C@H](Cc2ccc(-c3ccccc3)cc2)NC1=O` [Compound 1730] ({CH2CO}-[4Pal]YDWL[Bip]V[NMeA][dA]NLVSCA-NH2; thioether N-14), the concentration for half-maximal inhibition (IC50) stood at 0.01 µM.

Turning to `CC(C)C[C@@H]1NC(=O)[C@H](Cc2c[nH]c3ccccc23)NC(=O)[C@H](Cc2nn[nH]n2)NC(=O)[C@H](Cc2ccc(O)cc2)NC(=O)[C@H](Cc2ccccc2)NC(=O)CSC[C@@H](C(=O)N[C@@H](C)C(N)=O)NC(=O)[C@H](CO)NC(=O)[C@H](C(C)C)NC(=O)[C@H](CC(C)C)NC(=O)[C@H](CC(N)=O)NC(=O)[C@@H](CC(C)C)NC(=O)[C@H](C)N(C)C(=O)[C@H](C(C)C)NC(=O)[C@H](Cc2ccc(-c3ccccc3)cc2)NC1=O` [Compound 1541] ({CH2CO}-FY[Ala(1H-tetrazol-5-yl)]WL[Bip]V[NMeA][dL]NLVSCA-NH2; thioether N-14), the IC50 is 0.02 µM.

For `C=CC[C@@H]1NC(=O)[C@H](Cc2cccc(C)c2)NC(=O)[C@H](CC(=O)O)NC(=O)[C@H](Cc2ccncc2)NC(=O)[C@H](Cc2ccc(OCC(=O)O)cc2)NC(=O)CSCC(C(=O)NCC(N)=O)NC(=O)[C@H](CC=C)NC(=O)[C@H](C(C)C)NC(=O)[C@H](CC(C)C)NC(=O)[C@H](CC(N)=O)NC(=O)[C@@H](CC(C)C)NC(=O)[C@H](C)N(C)C(=O)[C@H](C(C)C)NC(=O)[C@H](Cc2ccc(-c3ccccc3)cc2)NC1=O` (stereo partly drawn) [Compound 1880] ({CH2CO}-Y(Carboxymethyl)[4Pal]D[Phe(3-Me)][AllylGly][Bip]V[NMeA][dL]NLV[AllylGly][ξC]G-NH2; thioether N-14), the IC50 was found to be 0.05 µM.

Regarding `CC(C)C[C@@H]1NC(=O)[C@H](Cc2c[nH]c3ccccc23)NC(=O)[C@H](CC(=O)O)NC(=O)[C@H](Cc2ccc(C(=O)O)cc2)NC(=O)[C@H](Cc2ccc(OCC(=O)O)cc2)NC(=O)CSC[C@@H](C(=O)NCC(N)=O)NC[C@H](CO)NC(=O)[C@H](C(C)C)NC(=O)[C@H](CC2CCCCC2)NC(=O)[C@H](CC(N)=O)NC(=O)[C@@H](CC(C)C)NC(=O)[C@H](C)N(C)C(=O)[C@H](C(C)C)NC(=O)[C@H](Cc2ccc(-c3ccccc3)cc2)NC1=O` [Compound 1623], the IC50 was determined as 0.19 µM.

Turning to `CC[C@H](C)[C@@H]1NC(=O)[C@H](Cc2ccc(-c3ccccc3)cc2)NC(=O)[C@H](C(C)C)NC(=O)[C@H](Cc2c[nH]c3ccccc23)NC(=O)[C@H](CC(=O)O)NC(=O)[C@H](Cc2ccc(O)cc2)NC(=O)[C@H](CCC(N)=O)NC(=O)CSC[C@@H](C(=O)N[C@@H](C)C(N)=O)NC(=O)[C@H]([C@@H](C)O)NC(=O)[C@H](C(C)C)NC(=O)[C@H](CC(C)C)NC(=O)[C@H](CCN)NC(=O)[C@@H](CC(C)C)NC(=O)[C@H](C)N(C)C1=O` [Compound 1391] ({CH2CO}-QYDWV[Bip]I[NMeA][dL][Dab]LVTCA-NH2; thioether N-14), the 50% inhibitory concentration (IC50) was 0.03 µM.
